Assay results as given in article PMC3639963, “A New Class of Small Molecule Inhibitor of BMP Signaling” (PLoS ONE, 2013).

Columns and labels:
Assay in all cases: Nanosyn kinase profiling
Assay type in all cases: biochemical
Conditions in all cases: read-out: Percentage inhibition; for inhibition at 0.1 µM: 0.1 µM inhibitor; for inhibition at 1 µM: 1 µM inhibitor
CDK2/cycE = molecular target: T1, CDK2/cycE (Homo sapiens, UniProt P24941)
T1 construct: purchased Nanosyn (enzymatic panel); SGC in-house recombinant human kinases (DSF panel); Invitrogen (ALK1-6)
Method in brief: (§1)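 Percent inhibition of each kinase was measured with the inhibitor at 0.1 µM and at 1 µM, as part of a 200-kinase human selectivity panel.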

BRSK2 = molecular target: T2, BRSK2 (Homo sapiens, UniProt Q8IWQ3)
T2 construct: purchased Nanosyn (enzymatic panel); SGC in-house recombinant human kinases (DSF panel); Invitrogen (ALK1-6)
T2 sequence (Q8IWQ3 1-736): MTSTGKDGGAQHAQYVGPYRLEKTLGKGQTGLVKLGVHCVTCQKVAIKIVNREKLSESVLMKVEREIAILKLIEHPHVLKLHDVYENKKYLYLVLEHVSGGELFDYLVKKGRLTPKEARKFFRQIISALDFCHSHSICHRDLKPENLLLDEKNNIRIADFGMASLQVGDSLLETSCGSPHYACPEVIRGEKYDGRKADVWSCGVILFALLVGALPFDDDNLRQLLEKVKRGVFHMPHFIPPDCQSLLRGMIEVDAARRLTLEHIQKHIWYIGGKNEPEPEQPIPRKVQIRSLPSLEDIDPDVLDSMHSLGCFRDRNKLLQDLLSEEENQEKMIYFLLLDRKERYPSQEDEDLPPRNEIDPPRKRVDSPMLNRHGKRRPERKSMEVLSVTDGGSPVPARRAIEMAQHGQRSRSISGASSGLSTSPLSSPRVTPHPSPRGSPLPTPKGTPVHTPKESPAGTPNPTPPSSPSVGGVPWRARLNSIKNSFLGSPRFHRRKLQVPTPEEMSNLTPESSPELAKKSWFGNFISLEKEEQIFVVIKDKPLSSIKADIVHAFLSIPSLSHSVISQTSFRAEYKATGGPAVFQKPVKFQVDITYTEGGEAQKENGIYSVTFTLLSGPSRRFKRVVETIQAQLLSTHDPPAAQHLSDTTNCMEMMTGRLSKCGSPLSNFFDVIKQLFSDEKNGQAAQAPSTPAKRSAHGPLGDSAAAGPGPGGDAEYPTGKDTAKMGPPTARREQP
Method in brief: as §1

JNK2 = molecular target: T3, JNK2 (Homo sapiens, UniProt P45984)
T3 construct: purchased Nanosyn (enzymatic panel); SGC in-house recombinant human kinases (DSF panel); Invitrogen (ALK1-6)
Method in brief: as §1

ROS = molecular target: T4, ROS (Homo sapiens, UniProt P08922)
T4 construct: purchased Nanosyn (enzymatic panel); SGC in-house recombinant human kinases (DSF panel); Invitrogen (ALK1-6)
Method in brief: as §1

DYRK1A = molecular target: T5, DYRK1A (Homo sapiens, UniProt Q13627)
T5 construct: purchased Nanosyn (enzymatic panel); SGC in-house recombinant human kinases (DSF panel); Invitrogen (ALK1-6)
Method in brief: as §1

EPHB3 = molecular target: T6, EPHB3 (Homo sapiens, UniProt P54753)
T6 construct: purchased Nanosyn (enzymatic panel); SGC in-house recombinant human kinases (DSF panel); Invitrogen (ALK1-6)
T6 sequence (P54753 34-998): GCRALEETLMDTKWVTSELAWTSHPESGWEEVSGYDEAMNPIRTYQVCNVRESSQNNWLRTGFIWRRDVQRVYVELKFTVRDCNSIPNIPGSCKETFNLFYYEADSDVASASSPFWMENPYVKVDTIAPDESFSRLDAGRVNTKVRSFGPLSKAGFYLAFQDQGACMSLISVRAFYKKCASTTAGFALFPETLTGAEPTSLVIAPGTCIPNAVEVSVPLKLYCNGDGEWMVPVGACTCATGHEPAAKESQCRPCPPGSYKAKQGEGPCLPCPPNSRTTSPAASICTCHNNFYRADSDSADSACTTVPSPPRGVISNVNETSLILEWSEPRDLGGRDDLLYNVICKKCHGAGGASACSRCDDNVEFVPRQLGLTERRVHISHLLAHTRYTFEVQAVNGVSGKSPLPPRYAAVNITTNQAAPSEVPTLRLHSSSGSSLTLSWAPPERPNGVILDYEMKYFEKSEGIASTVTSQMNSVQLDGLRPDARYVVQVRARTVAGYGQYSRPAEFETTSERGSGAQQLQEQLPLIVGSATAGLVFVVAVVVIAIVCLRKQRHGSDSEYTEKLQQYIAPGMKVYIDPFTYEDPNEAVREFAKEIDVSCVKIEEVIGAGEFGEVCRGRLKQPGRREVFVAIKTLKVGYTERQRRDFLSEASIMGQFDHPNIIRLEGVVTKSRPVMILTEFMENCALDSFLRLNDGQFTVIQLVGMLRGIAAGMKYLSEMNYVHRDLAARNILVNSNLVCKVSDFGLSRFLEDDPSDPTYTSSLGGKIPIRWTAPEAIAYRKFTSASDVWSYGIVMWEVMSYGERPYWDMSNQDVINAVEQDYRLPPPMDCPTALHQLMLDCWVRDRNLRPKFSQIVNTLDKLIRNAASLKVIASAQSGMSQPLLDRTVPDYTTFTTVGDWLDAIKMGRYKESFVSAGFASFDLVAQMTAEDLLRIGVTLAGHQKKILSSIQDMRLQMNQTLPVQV
Method in brief: as §1

SGK1 = molecular target: T7, SGK1 (Homo sapiens, UniProt O00141)
T7 construct: purchased Nanosyn (enzymatic panel); SGC in-house recombinant human kinases (DSF panel); Invitrogen (ALK1-6)
T7 sequence (O00141 1-431): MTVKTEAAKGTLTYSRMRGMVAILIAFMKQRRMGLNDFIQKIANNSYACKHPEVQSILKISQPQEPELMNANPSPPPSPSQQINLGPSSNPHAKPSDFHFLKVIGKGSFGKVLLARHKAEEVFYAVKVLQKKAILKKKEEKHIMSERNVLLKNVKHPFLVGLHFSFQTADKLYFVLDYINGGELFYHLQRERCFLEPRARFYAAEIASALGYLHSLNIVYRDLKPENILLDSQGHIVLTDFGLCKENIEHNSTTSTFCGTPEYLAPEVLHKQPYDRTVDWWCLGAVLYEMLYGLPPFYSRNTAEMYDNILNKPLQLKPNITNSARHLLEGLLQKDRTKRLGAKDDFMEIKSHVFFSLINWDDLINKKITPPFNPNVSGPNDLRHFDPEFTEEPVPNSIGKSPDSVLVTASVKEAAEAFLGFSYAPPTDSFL
Method in brief: as §1

AMPKα1 = molecular target: T8, AMPKα1 (Homo sapiens, UniProt Q13131)
T8 construct: purchased Nanosyn (enzymatic panel); SGC in-house recombinant human kinases (DSF panel); Invitrogen (ALK1-6)
Method in brief: as §1

T4 sequence (P08922 28-2347): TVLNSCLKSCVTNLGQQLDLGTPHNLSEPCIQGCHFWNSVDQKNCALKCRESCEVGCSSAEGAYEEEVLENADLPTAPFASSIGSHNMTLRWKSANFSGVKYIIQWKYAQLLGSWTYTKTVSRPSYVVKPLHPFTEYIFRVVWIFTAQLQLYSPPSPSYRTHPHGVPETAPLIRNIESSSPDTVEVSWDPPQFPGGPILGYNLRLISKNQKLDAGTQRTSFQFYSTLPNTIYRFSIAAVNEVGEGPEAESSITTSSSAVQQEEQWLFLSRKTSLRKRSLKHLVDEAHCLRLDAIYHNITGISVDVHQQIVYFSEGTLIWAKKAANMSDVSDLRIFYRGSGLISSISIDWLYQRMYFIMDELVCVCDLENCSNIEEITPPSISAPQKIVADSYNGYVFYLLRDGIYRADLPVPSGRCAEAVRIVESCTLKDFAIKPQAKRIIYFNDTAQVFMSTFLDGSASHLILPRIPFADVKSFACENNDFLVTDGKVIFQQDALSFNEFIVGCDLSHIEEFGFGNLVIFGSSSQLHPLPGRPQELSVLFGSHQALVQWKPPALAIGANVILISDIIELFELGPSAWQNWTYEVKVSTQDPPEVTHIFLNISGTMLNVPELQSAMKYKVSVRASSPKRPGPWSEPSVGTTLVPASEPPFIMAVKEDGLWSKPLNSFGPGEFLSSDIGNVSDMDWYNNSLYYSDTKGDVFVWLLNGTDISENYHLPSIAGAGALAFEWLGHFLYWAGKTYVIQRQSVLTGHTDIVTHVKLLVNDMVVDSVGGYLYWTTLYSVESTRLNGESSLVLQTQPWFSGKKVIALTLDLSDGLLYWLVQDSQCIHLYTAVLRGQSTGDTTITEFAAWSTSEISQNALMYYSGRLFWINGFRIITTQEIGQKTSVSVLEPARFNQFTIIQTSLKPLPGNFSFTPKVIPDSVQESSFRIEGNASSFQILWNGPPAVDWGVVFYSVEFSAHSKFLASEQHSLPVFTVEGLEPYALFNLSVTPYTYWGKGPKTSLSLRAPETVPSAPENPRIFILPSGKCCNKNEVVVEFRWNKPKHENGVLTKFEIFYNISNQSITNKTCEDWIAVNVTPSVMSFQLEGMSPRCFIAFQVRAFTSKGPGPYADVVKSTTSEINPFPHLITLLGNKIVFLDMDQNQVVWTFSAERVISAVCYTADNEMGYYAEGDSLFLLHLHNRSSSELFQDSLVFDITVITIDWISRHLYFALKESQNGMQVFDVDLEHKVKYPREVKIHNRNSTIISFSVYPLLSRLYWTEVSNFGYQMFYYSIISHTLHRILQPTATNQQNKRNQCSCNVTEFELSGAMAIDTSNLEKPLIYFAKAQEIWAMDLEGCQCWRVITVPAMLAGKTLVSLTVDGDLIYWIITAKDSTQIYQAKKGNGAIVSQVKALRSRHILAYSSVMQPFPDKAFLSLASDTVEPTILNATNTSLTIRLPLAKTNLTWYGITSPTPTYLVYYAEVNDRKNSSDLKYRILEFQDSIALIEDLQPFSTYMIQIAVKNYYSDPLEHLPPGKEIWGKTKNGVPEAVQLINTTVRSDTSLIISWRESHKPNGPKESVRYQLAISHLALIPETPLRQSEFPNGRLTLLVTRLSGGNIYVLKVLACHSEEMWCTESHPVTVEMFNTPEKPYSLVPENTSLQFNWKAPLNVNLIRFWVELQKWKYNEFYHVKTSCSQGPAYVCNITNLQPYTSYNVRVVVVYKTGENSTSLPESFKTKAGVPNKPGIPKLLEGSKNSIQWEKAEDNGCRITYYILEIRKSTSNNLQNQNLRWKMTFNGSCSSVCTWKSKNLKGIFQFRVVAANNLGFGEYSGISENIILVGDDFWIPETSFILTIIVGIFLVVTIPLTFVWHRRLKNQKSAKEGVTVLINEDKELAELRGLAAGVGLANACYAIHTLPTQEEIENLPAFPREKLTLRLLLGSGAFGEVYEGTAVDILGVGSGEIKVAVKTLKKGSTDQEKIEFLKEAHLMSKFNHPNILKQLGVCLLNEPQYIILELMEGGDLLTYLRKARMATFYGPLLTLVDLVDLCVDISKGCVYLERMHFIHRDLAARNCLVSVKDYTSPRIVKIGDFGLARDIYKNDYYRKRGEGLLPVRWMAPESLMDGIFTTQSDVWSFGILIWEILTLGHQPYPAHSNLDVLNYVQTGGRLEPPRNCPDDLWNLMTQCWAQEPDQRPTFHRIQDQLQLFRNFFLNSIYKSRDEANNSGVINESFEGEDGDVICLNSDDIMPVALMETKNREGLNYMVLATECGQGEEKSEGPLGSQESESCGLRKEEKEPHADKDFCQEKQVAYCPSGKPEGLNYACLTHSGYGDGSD
T8 sequence (Q13131 whole entry): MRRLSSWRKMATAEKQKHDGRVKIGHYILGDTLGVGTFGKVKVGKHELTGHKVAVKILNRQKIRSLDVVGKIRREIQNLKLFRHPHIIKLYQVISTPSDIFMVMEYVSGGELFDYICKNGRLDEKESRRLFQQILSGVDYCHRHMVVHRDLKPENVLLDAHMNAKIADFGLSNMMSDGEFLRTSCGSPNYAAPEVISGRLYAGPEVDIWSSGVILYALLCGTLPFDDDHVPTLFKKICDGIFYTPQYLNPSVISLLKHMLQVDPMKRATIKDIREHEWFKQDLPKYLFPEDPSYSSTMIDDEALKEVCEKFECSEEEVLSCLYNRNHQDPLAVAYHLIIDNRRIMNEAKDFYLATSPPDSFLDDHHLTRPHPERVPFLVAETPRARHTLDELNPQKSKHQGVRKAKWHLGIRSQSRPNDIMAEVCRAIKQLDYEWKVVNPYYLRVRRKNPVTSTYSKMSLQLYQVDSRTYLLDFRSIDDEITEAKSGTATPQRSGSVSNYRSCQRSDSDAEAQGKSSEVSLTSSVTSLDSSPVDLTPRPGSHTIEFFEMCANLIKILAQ
T8 sequence (Q9Y478 whole entry partner): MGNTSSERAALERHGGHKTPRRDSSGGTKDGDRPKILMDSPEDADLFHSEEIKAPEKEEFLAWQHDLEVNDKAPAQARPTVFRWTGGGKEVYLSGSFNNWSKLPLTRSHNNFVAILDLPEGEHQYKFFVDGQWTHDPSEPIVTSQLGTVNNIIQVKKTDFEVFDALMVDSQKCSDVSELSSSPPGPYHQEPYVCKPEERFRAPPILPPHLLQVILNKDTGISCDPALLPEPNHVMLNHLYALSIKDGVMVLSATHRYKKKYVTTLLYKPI
T8 sequence (P54619 whole entry partner): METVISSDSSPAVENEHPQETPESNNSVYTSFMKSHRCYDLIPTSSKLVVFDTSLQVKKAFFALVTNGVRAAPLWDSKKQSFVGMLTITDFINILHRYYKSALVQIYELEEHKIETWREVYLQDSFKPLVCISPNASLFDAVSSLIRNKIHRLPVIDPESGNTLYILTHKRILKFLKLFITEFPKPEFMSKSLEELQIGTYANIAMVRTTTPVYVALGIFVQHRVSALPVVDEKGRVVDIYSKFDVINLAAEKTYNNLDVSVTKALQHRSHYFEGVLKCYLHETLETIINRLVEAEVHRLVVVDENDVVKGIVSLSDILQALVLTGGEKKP
T3 sequence (P45984 whole entry): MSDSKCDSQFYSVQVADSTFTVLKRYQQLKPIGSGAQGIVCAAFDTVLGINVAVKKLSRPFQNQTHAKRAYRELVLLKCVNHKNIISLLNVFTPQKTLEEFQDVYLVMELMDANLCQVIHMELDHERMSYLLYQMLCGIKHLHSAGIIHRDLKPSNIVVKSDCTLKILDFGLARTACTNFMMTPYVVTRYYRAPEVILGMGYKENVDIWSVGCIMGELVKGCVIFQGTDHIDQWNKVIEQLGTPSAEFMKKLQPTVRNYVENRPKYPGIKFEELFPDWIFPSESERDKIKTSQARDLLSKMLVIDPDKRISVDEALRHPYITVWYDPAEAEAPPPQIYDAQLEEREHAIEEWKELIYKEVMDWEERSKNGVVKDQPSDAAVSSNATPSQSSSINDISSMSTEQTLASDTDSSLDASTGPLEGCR

Compound	inhibition at 0.1 µM (CDK2/cycE) [%]	inhibition at 1 µM (CDK2/cycE) [%]	inhibition at 0.1 µM (BRSK2) [%]	inhibition at 1 µM (BRSK2) [%]	inhibition at 0.1 µM (JNK2) [%]	inhibition at 1 µM (JNK2) [%]	inhibition at 0.1 µM (ROS) [%]	inhibition at 1 µM (ROS) [%]	inhibition at 0.1 µM (DYRK1A) [%]	inhibition at 1 µM (DYRK1A) [%]	inhibition at 0.1 µM (EPHB3) [%]	inhibition at 1 µM (EPHB3) [%]	inhibition at 0.1 µM (SGK1) [%]	inhibition at 1 µM (SGK1) [%]	inhibition at 0.1 µM (AMPKα1) [%]	inhibition at 1 µM (AMPKα1) [%]
COc1cc(-c2cc(-c3cccc(O)c3)cnc2N)cc(OC)c1OC [K02288, 3-[6-amino-5-(3,4,5-trimethoxy-phenyl)-pyridin-3-yl]-phenol]	0.2	1.5	0.9	2.7	0.9	0	1.8	6.8	1.9	4.1	-2	-1	1.1	-2	-1	0
c1ccc2c(-c3cnn4cc(-c5ccc(N6CCNCC6)cc5)cnc34)ccnc2c1 [LDN-193189]	2.8	5.3	4.4	22	3.9	1.3	3.8	3.7	10	53	5.6	4.3	1.1	0.8	5.2	23
